Measured values: patent publication US9163025B2, “Stable complexes of an alkaline earth metal salt of N5-methyl-tetrahydrofolic acid and a polyol” (CERBIOS-PHARMA SA, priority 2013, dated 2015)

Test: Accelerated stability of calcium (6S) N5-methyl-tetrahydrofolate products (HPLC related substances and assay)
Assay type: physicochemical
Settings: 25° C. and 40% relative humidity
Method: Determination of related substances of calcium (6S)—N^5-methyl-(5,6,7,8)-tetrahydrofolate by HPLC method
25±3 mg of (6S)-5-methyl-tetrahydrofolic acid calcium salt calculated on dry base were placed in a 50 ml volumetric flask and added with 320 μl of acid ascorbic solution and water until the final volume was reached. The solution was transferred in a HPLC vial and the sample injected immediately.
Analysis: 10 μl of the sample solution were Injected, the chromatogram recorded (analytical wavelength 280±16 nm) and the peak response measured.
the liquid chromatograph was equipped with a Hypersil ODS column (length 250 mm, ID 4 mm, particle size 5 μm). The column was coupled with a diode array detector for the detection wavelength of 280±16 nm
Determination of assay by HPLC of calcium (6RS) and (6S) N^5-methyl-tetrahydrofolate
75-85 mg of sample were dissolved in 200 ml water within a 250 ml volumetric flask. 1 ml of the ascorbic acid solution was added and dilute to 250 ml with water. A total of three sample solutions were prepared.
The HPLC system was verified and calibrated by injecting the standard solutions. Once each of the three prepared sample solutions were injected followed by one standard solution as calibration control.
The liquid chromatograph was equipped with an analytical column such ACE 5 C18, 250 mm×2.1 mm, with particle size 5 μm.
acetonitrile 12%, phosphate buffer pH 6.5 80%, methanol+2-mercaptoethanol 8%.
column temperature: 25° C., isocratic mode, flow rate: 0.41 ml/min, injection volume: 5 μl, run time: 13.5 min, analytical wavelength: 290 nm.
The stability of the complexes according to the present invention prepared by spray-drying or lyophilization as described in examples 5 and 7 was tested in comparison with the stability of (6S)—N^5-methyl-tetrahydrofolate calcium salt alone. Preparations obtained through different technologies, such as evaporation of the solvent from the solution, as reported in examples 2, 3 and 4, were also assessed for stability. Accelarated stability experiments at 25° C. and 40% relative humidity were carried out.

Compound: CN1c2c(nc(N)[nH]c2=O)NC[C@@H]1CNc1ccc(C(=O)N[C@@H](CCC(=O)[O-])C(=O)[O-])cc1.[Ca+2] [Product 5MeTHF, (6S)—N^5-methyl-(5,6,7,8)-tetrahydrofolate calcium salt]
- Decrease of 5MeTHF % content (4 weeks): −2.70%
- Increase of D2 % content (4 weeks): 1.30%
- Decrease of 5MeTHF % content (12 weeks): −2.80%
- Increase of D2 % content (12 weeks): 1.40%
- Decrease of 5MeTHF % content (24 weeks): −5.6%
- Increase of D2 % content (24 weeks): 2.3%
